The structures appear in SMILES notation. Read-outs that look alike come from different tables or passages of the source.

Data set [1] can be described thus: Growth of KB cells (population doubling times). The settings on record: human, kb cells; 100 μM; read-out: reduction of KB cell growth rate. Type of data set: cell-based, human. How it is done: (§1) Population doubling times and cell viability were measured in uninfected HFF and/or KB cells. Cells were planted in replicate 6-well plastic tissue culture dishes or in 25 cm^2 flasks as described above in part 1. Following an incubation period during which cells attached to the substrate, medium was decanted, the cell sheet rinsed once with HBS, and fresh medium added. The medium consisted of MEM(E) with 1.1 gm NaHCO3 /liter and 10% fetal bovine or calf serum plus appropriate log or half-log concentrations of drug. After additional periods of incubation from 1 to 72 hours at 37° C., cells were harvested by means of 0.05% trypsin plus 0.02% EDTA in a HEPES-buffered salt solution. Cells were enumerated using either a Coulter counter or a hemocytometer and viability determining using trypsan blue dye exclusion.
In more extensive cytotoxicity testing, the halogenated compounds were tested for effects on the growth of KB cells. Populations doubling times were calculated from the logarithmic portions of growth curves and were as follows: […]

Data set [2] in a line: Growth of HFF cells. Type of data set: cell-based, human. The following applies: human, hff cells; 100 μM; 70-hour incubation; read-out: reduction of number of HFF cells. How it is done: as §1
The effect of these compounds on the growth of human diploid fibroblasts (HFF cells) was less pronounced. During a 70-hour incubation, control cells underwent two doublings. […] A 100 μM concentration reduced the number of cells by less than 10%.

Data set [3] has as its system human PBLs. In words: DNA synthesis in mitogen-stimulated human PBLs. Type of data set: cell-based. The settings on record: pokeweed mitogen or concanavalin A; 0.1, 1, 10 and 100 μM.
Data set [4] can be described thus: Drug toxicity control in uninfected mice. The format is in vivo. The following applies: for mortality: mouse, in vivo, ip, read-out: Mortality Percent (Toxicity).

As to `OCC(CO)OCn1cc(Br)c2c(NO)ncnc21` [UMJD 299, 4-hydroxylamino-5-bromo-7-[(1,3-dihydroxy-2-propoxy)methyl]pyrrolo[2,3-d]pyrimidine], the inhibition at 100 µM in data set [1] was > 50%.

On to `Nc1ncnc2c1c(Cl)cn2COCCO` [UMJD 100, 4-Amino-5-chloro-7-(2-hydroxyethoxymethyl)pyrrolo[2,3-d]-pyrimidine], for which, in data set [2], the inhibition at 70 h, 100 µM is < 10%. Further, the “effect on DNA synthesis in human PBLs” value in data set [3] is “did not affect DNA synthesis”.

As for `Nc1ncnc2c1c(Br)cn2COC(CO)CO` [UMJD 183, 4-amino-5-bromo-7-[(1,3-dihydroxy-2-propoxy)methyl]-pyrrolo[2,3-d]pyrimidine], the “Mortality Number (Toxicity)” value is reported as 0/15 in data set [4] (1.9 mg/kg, no virus); 0/15 in data set [4] (5.6 mg/kg, no virus); 1/15 in data set [4] (16.7 mg/kg, no virus); 0/15 in data set [4] (50 mg/kg, no virus). In addition, the “MDD (Toxicity)” value in data set [4] (16.7 mg/kg, no virus) amounted to 5.0 days. The “toxicity in uninfected animals (in words)” value in data set [4] (administered alone to uninfected animals) is “virtually no toxicity”. In data set [4] (all doses together), the “deaths in uninfected animals” value came to 1 death in 60 animals. The mortality came to 0% in data set [4] (1.9 mg/kg, no virus); 0% in data set [4] (5.6 mg/kg, no virus); 7% in data set [4] (16.7 mg/kg, no virus); 0% in data set [4] (50 mg/kg, no virus).

The mortality is the share of the test organisms that died.

The values above are taken from patent US4968686A, “Acyclic pyrrolo [2,3-d]pyrimidine analogs as antiviral agents” (The Regents of The University of Michigan, priority 1989, dated 1990).
